Assay results from patent US10130590B2, “Methods of treating cancer with atovaquone-related compounds” (DANA-FARBER CANCER INSTITUTE, INC., priority 2013, dated 2018).

Tested on: STAT3
Test: Western blot of STAT3 phosphorylation in reporter and cancer cell lines
Assay type: cell-based, human
Procedure: Western blotting was performed as previously described (Battle T E, Arbiser J, & Frank D A (2005) The natural product honokiol induces caspase dependent apoptosis in B-cell chronic lymphocytic leukemia (B-CLL) cells. Blood 106(2):690-697). Antibodies to phospho-MAPK (9101), total MAPK (9102), phospho-Y705 STAT3 (9131), phospho-S6 (2215), total S6 (2217), phospho-4E-BP1 (9451), total 4E-BP1 (9644), total RSK (9355), phospho-S6K (9234, 85 used at 1:5000), total S6K (2708), phospho-eIF2α (9721, used at 1:1000), total eIF2α (5324), ATF4 (11815, used at 1:1000), PDGFRβ (3169), IGF1Rβ (9750), EGFR (2232), and HER2 (2242) were from Cell Signaling Technology. Phospho-RSK antibody was from R&D (AF889). Antibodies to total STAT3 (sc-482) and gp130 (sc-656, used at 1:1000) were from Santa Cruz Biotechnology. Phospho-S727 STAT3 antibody was described previously (229). REDD1 antibody was from Proteintech (10638-1-AP, used at 1:1000). Antibody recognizing full-length and cleaved ATF6 was from Abcam (ab122897, used at 1:1000). Antibodies to tubulin (T5168) and beta actin (A5316) were from Sigma. All antibodies were used at 1:10000 dilution for western blot unless otherwise noted. For immunoprecipitations, cells were lysed in 500 μl lysis buffer (0.5% NP-40, 150 mM NaCl, 50 mM Tris pH 7.5, with protease and phosphatase inhibitors freshly added at 1:100 [Pierce, PI78443]) on ice for 15 minutes, then centrifuged for 10 minutes at 14,000 RPM and 4° C. The supernatant was transferred to a new tube and incubated with 10 μl JAK2 antibody (Santa Cruz sc-278) or a mix of two TYK2 antibodies, 10 μl of each (Santa Cruz sc-5271 and Cell Signaling Technology 9312). Immunoprecipitation was performed overnight at 4° C. with rotation. The next day, 75 μl of protein A/G beads (Santa Cruz sc-2003) were washed twice in lysis buffer, then incubated with immunoprecipitates overnight as before. The next day, the beads were spun down (1 min. at 7,500 RPM and 4° C.) and washed 3 times with 650 μl lysis buffer for 10 minutes at 4° C. with rotation, then boiled in 50 μl sample buffer+10% β-mercaptoethanol. For Western blot, 20 μl were loaded per lane. For detection of phospho-tyrosine, a mixture of two pan-phospho-tyrosine antibodies (Cell Signaling Technology 9411 and 9416, 1:1000 of each) was used. Antibody to phospho-Y1007/1008 JAK2 was from Cell Signaling 86 Technology (3771, used at 1:1000). Antibody to phospho-Y570 JAK2 was from Millipore (09-241, used at 1:1000). Luminometric Assays Luciferase reporter cell lines were described previously (186). Firefly luciferase values were normalized by concurrent cell viability. Cell viability was measured as ATP-dependent luminescence by Cell Titer Glo (Promega).
The mechanism by which atovaquone inhibits STAT3 was investigated. STAT3-luc reporter cells were pre-treated with atovaquone (20 μM) for 1 hr, and then stimulated with IL-6 (10 ng/ml) for 15 minutes, 30 minutes, 1 hours, or 2 hours. Since STAT3 transcriptional activity is critically dependent on tyrosine phosphorylation, Western blotting was performed to see if atovaquone affected STAT3 phosphorylation. […] Next, atovaquone was used to treat U266 (2.5 hours), HEL (6 hours), or INA-6 cells (4 hours). […] In U266 and INA-6 cells, the source of STAT3 activation is JAK-dependent IL-6 signaling, while in HEL cells, STAT3 is activated by mutant JAK2-V617F. Given that atovaquone inhibits constitutive STAT3 activation in cancer cells, it was asked whether atovaquone inhibits expression of endogenous STAT3 target genes in this context.
Since atovaquone reduced gp130 expression at the cell surface, it was asked whether this effect was accompanied by reduced total gp130 in the cell. To address this question, a time course of atovaquone treatment was performed and total cellular gp130 was measured by Western blotting in U266 cells treated with atovaquone at 20 μM. […]

O=C1C(O)=C([C@H]2CC[C@H](c3ccc(Cl)cc3)CC2)C(=O)c2ccccc21 [atovaquone, trans-2-[4-(4-chlorophenyl)cyclohexyl]-3-hydroxy-1,4-naphthalenedione]
STAT3 tyrosine phosphorylation following IL-6 stimulation (STAT3 reporter cells, 20 μM pre-treatment 1 hr, IL-6 (10 ng/ml)): reduced STAT3 tyrosine phosphorylation
constitutive STAT3 tyrosine phosphorylation (U266 (2.5 hours), HEL (6 hours), INA-6 (4 hours)): inhibited constitutive STAT3 tyrosine phosphorylation
time after which STAT3 phosphorylation was inhibited (U266, 20 μM, time course): 10 min
STAT3 serine phosphorylation (U266, HEL, INA-6 cells): not affected
inhibition of STAT3 phosphorylation after cycloheximide pre-treatment (U266, cycloheximide 2 μg/ml 1 hour, atovaquone 15 μM 2.5 hours): did not affect the inhibition of STAT3 phosphorylation
